Three compounds from PMC10586511 (Molecular Pharmacology, 2023) can be followed below.

Molecules are shown by their SMILES.

This assay deals with T1, 5-HT1AR (serotonin 1A receptor) (Homo sapiens, UniProt P08908).
T1 sequence (P08908 1-422): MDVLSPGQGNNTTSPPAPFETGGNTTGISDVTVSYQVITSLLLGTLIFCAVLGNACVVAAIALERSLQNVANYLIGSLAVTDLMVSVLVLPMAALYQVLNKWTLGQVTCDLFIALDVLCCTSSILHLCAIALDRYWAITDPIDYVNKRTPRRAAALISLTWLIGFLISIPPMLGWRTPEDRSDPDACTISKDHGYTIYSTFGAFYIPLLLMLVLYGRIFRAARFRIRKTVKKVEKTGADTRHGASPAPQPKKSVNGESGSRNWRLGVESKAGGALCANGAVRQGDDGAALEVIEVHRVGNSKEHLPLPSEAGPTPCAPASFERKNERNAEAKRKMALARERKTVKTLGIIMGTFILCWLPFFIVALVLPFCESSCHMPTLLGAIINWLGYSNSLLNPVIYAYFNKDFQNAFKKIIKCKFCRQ
As to the kind of experiment: G protein nanoBRET. The class given is cell-based. (In general: Bioluminescence resonance energy transfer reports proximity on the nanometre scale.)
In the case of `Cc1cnc(CNCC2(F)CCN(C(=O)c3ccc(F)c(Cl)c3)CC2)nc1` [F-15599], the EC50 was 537 nM.

For the compound `COc1cc2c3c(c1OC)-c1ccccc1C[C@H]3N(C)CC2` [Nuciferine], the midpoint of the response, the EC50, lay at 16600 nM. To `O=c1[nH]c2ccccc2n1CCN1CCN(c2cccc(C(F)(F)F)c2)CC1` [Flibanserin] belongs 170 nM.

As usually defined, the EC50 is the midpoint of the concentration-response curve.
